Experiments:
Hepatitis C virus [1] = test: Antiviral activity against HCV1a H77 infected in human HuH7 cells assessed as inhibition of viral replication after 4 days by luciferase reporter gene assay in presence of 40% human plasma; assay type: functional, organism-based, Hepacivirus hominis; conditions: genotype 1a H77, Huh-7, Plasma, 96 h
Hepatitis C virus [2] = test: Ratio of EC50 for HCV1a H77 infected in human HuH7 cells in presence of 40% human plasma to EC50 for HCV1a H77 infected in human HuH7 cells in absence of 40% human plasma; assay type: functional, Hepacivirus hominis, genotype 1a H77, Huh-7
Hepatitis C virus [3] = test: Antiviral activity against HCV1a H77 infected in human HuH7 cells assessed as inhibition of viral replication after 4 days by luciferase reporter gene assay; assay type: functional, organism-based, Hepacivirus hominis; conditions: genotype 1a H77, Huh-7, 96 h
Hepatitis C virus [4] = test: Antiviral activity against HCV1b Con1 infected in human HuH7 cells assessed as inhibition of viral replication after 4 days by luciferase reporter gene assay in presence of 40% human plasma; assay type: functional, organism-based, Hepacivirus hominis; conditions: isolate Con1, Huh-7, Plasma, 96 h
Hepatitis C virus [5] = test: Ratio of EC50 for HCV1b Con1 infected in human HuH7 cells in presence of 40% human plasma to EC50 for HCV1b Con1 infected in human HuH7 cells in absence of 40% human plasma; assay type: functional, Hepacivirus hominis, isolate Con1, Huh-7
Hepatitis C virus [6] = test: Antiviral activity against HCV1b Con1 infected in human HuH7 cells assessed as inhibition of viral replication after 4 days by luciferase reporter gene assay; assay type: functional, organism-based, Hepacivirus hominis; conditions: isolate Con1, Huh-7, 96 h

Row | EC50 (Hepatitis C virus [1]) | EC50 (Hepatitis C virus [3]) | EC50 (Hepatitis C virus [4]) | EC50 (Hepatitis C virus [6]) | SMILES | Ratio EC50 (Hepatitis C virus [2]) | Ratio EC50 (Hepatitis C virus [5])
1 | 6.56 nM | 0.202 nM | 0.09 nM | 0.01 nM | CC[C@@H](C)[C@H](NC(=O)OC)C(=O)N1CCC[C@H]1C(=O)Nc1ccc([C@@H]2CC[C@@H](c3ccc(NC(=O)[C@@H]4CCCN4C(=O)[C@@H](NC(=O)OC)[C@H](C)CC)cc3)N2c2ccc(F)cc2)cc1 (mixture of isomers) | 32 | 9
2 | 27.6 nM | 0.659 nM | 3.42 nM | 0.226 nM | COC(=O)N[C@H](C(=O)N1CCC[C@H]1C(=O)Nc1ccc([C@H]2CC[C@H](c3ccc(NC(=O)[C@@H]4CCCN4C(=O)[C@@H](NC(=O)OC)C(C)(C)C)cc3)N2c2ccc(S(C)(=O)=O)cc2)cc1)C(C)(C)C | 42 | 15
3 |  | 253 nM |  | 282 nM | COC(=O)N[C@H](C(=O)N1CCC[C@H]1C(=O)Nc1ccc([C@@H]2CC[C@@H](c3ccc(NC(=O)[C@@H]4CCCN4C(=O)[C@@H](NC(=O)OC)C(C)C)cc3)N2)cc1)C(C)C |  | 
4 | 5.92 nM | 0.992 nM | 0.447 nM | 0.076 nM | COC(=O)N[C@H](C(=O)N1CCC[C@H]1C(=O)Nc1ccc([C@@H]2CC[C@@H](c3ccc(NC(=O)[C@@H]4CCCN4C(=O)[C@@H](NC(=O)OC)C(C)C)cc3)N2c2ccc(OC)cc2)cc1)C(C)C | 6 | 6
5 | 18 nM | 0.6 nM | 2.6 nM | 0.05 nM | COC(=O)N[C@H](C(=O)N1CCC[C@H]1C(=O)Nc1ccc([C@@H]2CC[C@@H](c3ccc(NC(=O)[C@@H]4CCCN4C(=O)[C@@H](NC(=O)OC)C(C)(C)O)cc3)N2c2ccc(F)cc2)cc1)C(C)(C)O (mixture of isomers) | 30 | 52
6 | 22.8 nM | 1.06 nM | 0.073 nM | 0.002 nM | COC(=O)N[C@H](C(=O)N1CCC[C@H]1C(=O)Nc1ccc([C@@H]2CC[C@@H](c3ccc(NC(=O)[C@@H]4CCCN4C(=O)[C@@H](NC(=O)OC)c4ccccc4)cc3)N2c2ccc(F)cc2)cc1)c1ccccc1 (mixture of isomers) | 22 | 37
7 |  | 38 nM |  | 0.4 nM | COC(=O)N[C@H](C(=O)N1CCC[C@H]1C(=O)Nc1ccc(CN(Cc2ccc(NC(=O)[C@@H]3CCCN3C(=O)[C@@H](NC(=O)OC)C(C)C)cc2)c2ccc(F)cc2)cc1)C(C)C |  | 
8 | 4.14 nM | 0.099 nM | 0.211 nM | 0.0088 nM | COC(=O)N[C@H](C(=O)N1CCC[C@H]1C(=O)Nc1ccc([C@@H]2CC[C@@H](c3ccc(NC(=O)[C@@H]4CCCN4C(=O)[C@@H](NC(=O)OC)C(C)(C)C)cc3)N2c2ccc(C(F)(F)F)cc2)cc1)C(C)(C)C | 42 | 24
9 | 4.46 nM | 0.286 nM | 0.089 nM | 0.0068 nM | COC(=O)N[C@H](C(=O)N1CCC[C@H]1C(=O)Nc1ccc([C@@H]2CC[C@@H](c3ccc(NC(=O)[C@@H]4CCCN4C(=O)[C@@H](NC(=O)OC)C(C)C)cc3)N2c2ccc(Br)cc2)cc1)C(C)C (mixture of isomers) | 16 | 13
10 | 14.3 nM | 0.829 nM | 0.184 nM | 0.011 nM | COC(=O)N[C@H](C(=O)N1CCC[C@H]1C(=O)Nc1ccc([C@H]2CC[C@H](c3ccc(NC(=O)[C@@H]4CCCN4C(=O)[C@@H](NC(=O)OC)C(C)(C)C)cc3)N2c2ccc(C(F)(F)F)cc2)cc1)C(C)(C)C | 17 | 17
11 | 1.69 nM | 0.89 nM | 0.256 nM | 0.011 nM | COC(=O)N[C@H](C(=O)N1CCC[C@H]1C(=O)Nc1ccc([C@@H]2CC[C@@H](c3ccc(NC(=O)[C@@H]4CCCN4C(=O)[C@@H](NC(=O)OC)C(C)C)cc3)N2c2ccc(-c3ccccc3)cc2)cc1)C(C)C (mixture of isomers) | 19 | 23
12 | 242 nM | 23 nM | 59.5 nM | 6.54 nM | COC(=O)N[C@H](C(=O)N1CCC[C@H]1C(=O)Nc1ccc([C@@H]2CC[C@@H](c3ccc(NC(=O)[C@@H]4CCCN4C(=O)[C@@H](NC(=O)OC)C(C)C)cc3)N2c2ccc(O)cc2)cc1)C(C)C (mixture of isomers) | 11 | 9
13 | 2.57 nM | 0.143 nM | 0.597 nM | 0.069 nM | COC(=O)N[C@H](C(=O)N1CCC[C@H]1C(=O)Nc1ccc([C@@H]2CC[C@@H](c3ccc(NC(=O)[C@@H]4CCCN4C(=O)[C@@H](NC(=O)OC)C(C)C)cc3)N2c2ccc(-c3cccnc3)cc2)cc1)C(C)C | 18 | 9
14 | 11.2 nM | 1.24 nM | 1.6 nM | 0.211 nM | COC(=O)N[C@H](C(=O)N1CCC[C@H]1C(=O)Nc1ccc([C@H]2CC[C@H](c3ccc(NC(=O)[C@@H]4CCCN4C(=O)[C@@H](NC(=O)OC)C(C)(C)C)cc3)N2c2ccc(N3CCOCC3)cc2)cc1)C(C)(C)C | 9 | 8
15 | 4.07 nM | 0.37 nM | 0.3 nM | 0.03 nM | COC(=O)N[C@H](C(=O)N1CCC[C@H]1C(=O)Nc1ccc([C@@H]2CC[C@@H](c3ccc(NC(=O)[C@@H]4CCCN4C(=O)[C@@H](NC(=O)OC)C(C)C)cc3)N2c2ccc(Cl)cc2)cc1)C(C)C (mixture of isomers) | 11 | 10
16 | 103 nM | 6.22 nM | 0.278 nM | 0.032 nM | COC(=O)N[C@H](C(=O)N1CCC[C@H]1C(=O)Nc1ccc([C@H]2CC[C@@H](c3ccc(NC(=O)[C@@H]4CCCN4C(=O)[C@@H](NC(=O)OC)C(C)(C)C)cc3)N2c2ccc(F)cc2)cc1)C(C)(C)C | 17 | 9
17 | 81 nM | 22 nM | 0.3 nM | 0.09 nM | COC(=O)N[C@H](C(=O)N1CCC[C@H]1C(=O)Nc1ccc([C@H]2CC[C@@H](c3ccc(NC(=O)[C@@H]4CCCN4C(=O)[C@@H](NC(=O)OC)C(C)C)cc3)N2c2ccc(F)cc2)cc1)C(C)C | 4 | 3
18 | 1.47 nM | 0.116 nM | 0.948 nM | 0.095 nM | COC(=O)N[C@H](C(=O)N1CCC[C@H]1C(=O)Nc1ccc([C@@H]2CC[C@@H](c3ccc(NC(=O)[C@@H]4CCCN4C(=O)[C@@H](NC(=O)OC)C(C)C)cc3)N2c2ccc(C(C)(C)CO)cc2)cc1)C(C)C | 13 | 10
19 | 4.36 nM | 0.72 nM | 0.204 nM | 0.04 nM | COC(=O)N[C@H](C(=O)N1CCC[C@H]1C(=O)Nc1ccc([C@@H]2CC[C@@H](c3ccc(NC(=O)[C@@H]4CCCN4C(=O)[C@@H](NC(=O)OC)C(C)C)cc3)N2c2ccc(C)cc2)cc1)C(C)C (mixture of isomers) | 6 | 5
20 | 1.68 nM | 0.164 nM | 0.114 nM | 0.0087 nM | COC(=O)N[C@H](C(=O)N1CCC[C@H]1C(=O)Nc1ccc([C@H]2CC[C@H](c3ccc(NC(=O)[C@@H]4CCCN4C(=O)[C@@H](NC(=O)OC)C(C)C)cc3)N2c2ccc(C3CC3)cc2)cc1)C(C)C | 10 | 13
21 | 34 nM | 4.6 nM | 1 nM | 0.14 nM | CC[C@H](NC(=O)OC)C(=O)N1CCC[C@H]1C(=O)Nc1ccc([C@@H]2CC[C@@H](c3ccc(NC(=O)[C@@H]4CCCN4C(=O)[C@H](CC)NC(=O)OC)cc3)N2c2ccc(F)cc2)cc1 | 7 | 7
22 | 0.706 nM | 0.033 nM | 0.086 nM | 0.0079 nM | COC(=O)N[C@H](C(=O)N1CCC[C@H]1C(=O)Nc1ccc([C@@H]2CC[C@@H](c3ccc(NC(=O)[C@@H]4CCCN4C(=O)[C@@H](NC(=O)OC)C(C)C)cc3)N2c2ccc(C(C)C)cc2)cc1)C(C)C (mixture of isomers) | 21 | 11
23 | 9.79 nM | 1.31 nM | 0.171 nM | 0.03 nM | CC[C@H](C)[C@H](NC(=O)OC)C(=O)N1CCC[C@H]1C(=O)Nc1ccc([C@@H]2CC[C@@H](c3ccc(NC(=O)[C@@H]4CCCN4C(=O)[C@@H](NC(=O)OC)[C@@H](C)CC)cc3)N2c2ccc(F)cc2)cc1 (mixture of isomers) | 7 | 6

Reference: ChEMBL document CHEMBL3124779, “Discovery of ABT-267, a pan-genotypic inhibitor of HCV NS5A” (J Med Chem, 2014)
